Assay [1] concerns DM1 patient derived fibroblasts containing 500 CUG repeats. Briefly: MBNL1 pre-mRNA splicing defects in DM1 patient derived fibroblasts. The class given is cell-based. To be noted: 300 and 200 μM, 48 h. The method, then: Bioactivity of 2GN8 was further assessed using DM1 patient derived fibroblasts containing 500 CUG repeats. First 2GN8 was evaluated for improvement of DM1 MBNL1 splicing defects. In DM1, mis-splicing of MBNL1 exon 5 results in an increase in inclusion to ˜30% compared to ˜15% inclusion in healthy tissue.
Bioactivity of 2GN8 was assessed by using DM1 patient derived fibroblasts containing 500 CTG repeats (GM03987) and healthy fibroblasts (GM07492). Cells were grown as monolayers in 6 well plates in growth medium (1×EMEM (Lonza), 10% FBS, 1× glutagro (Corning), 1×MEM non-essential amino acids (Corning) and 1× antibiotic/antimycotic (Corning)). Once cells were ˜80% confluent, they were treated with growth medium containing 2GN8 (300, 200 and 100 μM). After 48 h the cells were lysed and the total RNA was harvested using a Zymo Quick RNA miniprep kit. An on-column DNA digestion was completed per the manufacturer's recommended protocol. Approximately 100 ng of total RNA was reverse transcribed at 50° C. using 100 units of SuperScript III reverse transcriptase (Life Technologies). Then 20% of the RT reaction was subjected to PCR using GoTaq DNA polymerase. RT-PCR products were observed after 25 cycles of 95° C. for 30 s, 58° C. for 30 s, 72° C. for 1 min and a final extension at 72° C. for 1 min. The products were separated on an 2% agarose gel ran at 100 V for 1 h in 1×TAE buffer. […]

Assay [2] concerns C2C12 cell line expressing firefly luciferase mRNA with r(CUG)800 in the 3′ UTR. As to the kind of experiment: Luciferase reporter assay for DM1 translational defects in C2C12 cells. The class given is cell-based. The text has this:
Exemplary Formula (I) compound 2GN8 was studied for improving translational defects associated with DM1 (due to poor nucleocytoplasmic transport of r(CUG)^exp containing transcripts).^(30, 52, 53) In particular, a cellular model system was employed in which the C2C12 cell line stably expresses r(CUG)800 embedded in the 3′ UTR of firefly luciferase.^(54) Similar to DMPK mRNA in DM1-affected cells, the expanded repeat impairs nucleocytoplasmic transport of luciferase mRNA and thus decreases luciferase expression. Compounds that bind r(CUG)^exp and disrupt the r(CUG)^exp-MBNL1 complex may stimulate cytoplasmic transport of the luciferase mRNA and thus translation of luciferase (FIG. 9A).
C2C12 cell lines expressing 800 or 0 CTG repeats in the 3′ UTR of luciferase were grown as monolayers in 96-well plates in growth medium (1×DMEM, 10% FBS, 1× glutagro, (Corning) and 1× antibiotic/antimycotic (Corning))(66). Once the cells were 80% confluent, 2GN8 (300, 200 and 100 μM) was added in 100 μL of growth medium. Cells were treated for 48 h and then the cell count was normalized using WST-1 reagent (Roche). Then cells were washed with 1×DPBS and lysed by treating with 50 μL of PPBT lysis buffer at room temperature for 10 minutes. Then 50 μL of luciferase substrate was added and luminescence was measured.
(In a reporter assay the amount or activity of a reporter protein is the signal.)

In a further assay the test system is HSA^LR mice. As to the kind of experiment: Pre-mRNA splicing defects in HSA^LR mouse model of DM1. To be noted: 40 mg/kg/day intraperitoneally for 18 days. The class given is in vivo. The source says:
A mouse model of DM1 has been reported in which 250 rCUG repeats are expressed using an actin promoter (human skeletal actin long repeat, HSA^LR).^24 The presence of these repeats results in dysregulation of alternative splicing in the muscle-specific chloride ion channel (Clcn1) and the sarcoplasmic/endoplasmic reticulum calcium ATPase 1 (Serca1/Atp2a1) pre-mRNAs. Clcn1 exon 7a is excluded ˜100% in mRNA from normal adult mice: DM1 mice have an exclusion rate of ˜50% (FIG. 12A).
All experimental procedures, mouse handling, and husbandry were completed in accordance with the Association for Assessment and Accreditation of Laboratory Animal Care. A mouse model for DM1(67). HSALR in line 20b, was used. HSALR mice express human skeletal actin RNA with 250 CUG repeats in the 3′ UTR. Age- and gender-matched HSALR mice were injected intraperitoneally with either 40 mg/kg 2GN8 in water for treatment and 0.9% NaCl for control once per day for 18 days. Mice were sacrificed one day after the last injection, and the vastus muscle was obtained. RNA was extracted from the vastus tissue, and cDNA was synthesized as previously described.

Assay [3] concerns r(CUG)^exp-containing nuclear foci. Briefly: Nuclear foci by fluorescence in situ hybridization (FISH) in DM1 patient derived fibroblasts. To be noted: 300 and 200 μM, 48 h; untreated cells ˜5. The class given is cell-based. The source says: Bioactivity of 2GN8 was further assessed in DM1 patient derived fibroblasts for the disruption of nuclear foci. As observed in other microsatellite disorders, the binding of various proteins to r(CUG)^exp causes formation of nuclear foci.^(55) Fluorescence in situ hybridization (FISH) with a dye-labeled oligonucleotide was used to determine if 2GN8 disrupts r(CUG)^exp-containing nuclear foci. In untreated cells, the average number of foci per cell is ˜5. Treatment with 2GN8 reduces the average number of foci per cell to less than 1 at 300 and 200 μM (FIG. 11).
FISH was utilized to determine the effects of 2GN8 on the formation and disruption of nuclear foci. DM1 patient derived fibroblasts containing 500 CTG repeats (GM03987) were grown to ˜80% confluence in a Mat-Tek 96-well glass bottom plate in growth medium. Cells were treated with 2GN8 (300, 200 and 100 μM) for 48 h in growth medium followed by FISH as previously described(63) using 1 ng/μL DY547-2′OMe-(CAG)6. Immunostaining of MBNL1 was completed as previously described(65) using the MB1a antibody (diluted 1:4), which was generously supplied by Prof. […]

`N=C(N)Nc1ccc2nc(-c3ccc(-c4nc5ccc(NC(=N)N)cc5[nH]4)cc3)[nH]c2c1` [Compound 2GN8]: the “improvement of MBNL1 pre-mRNA splicing defects (exon 5 inclusion)” value in assay [1] is recorded as “substantially improves”. Also, the “luciferase activity in cells without r(CUG)800” value in assay [2] (C2C12 cells expressing firefly luciferase mRNA without r(CUG)800) is on record as “does not affect luciferase activity”. The “luciferase activity (improvement of translational defect)” value in assay [2] (C2C12 cells with r(CUG)800, 300 and 200 μM, 48 h) is recorded as “significant increase”. In addition, in the assay with HSA^LR mice, the “Clcn1 pre-mRNA splicing defects” value is on record as “improved to nearly wild type levels” and the “Serca1 pre-mRNA splicing defects” value is listed as “improved to nearly wild type levels”. Also, the “average number of foci per cell” value in assay [3] is recorded as “less than 1”.

These data come from US20180296532A1, “RNA-Focused Small Molecules for Inhibiting RNA Toxicity in Myotonic Dystrophy” (The Scripps Research Institute, priority 2015, published 2018).
